# Test system: Dogs
# Test: Effect on dog intraocular pressure, applanation pneumatonometry
# Format: in vivo
# Details: for time (Hr) of IOP max % decrease / time (Hr) of IOP max mmHg / IOP max mmHg / IOP max % decrease: 25 μl to the ocular surface, concentration 0.03%; for IOP max mmHg / IOP max % decrease: at the time of maximum given in the cell; for IOP max % decrease: vehicle 0.1% polysorbate 80 and 10 mM TRIS base; for ocular hypotensive effect in dogs: topical ocular administration, result in words
# Procedure: The compounds were prepared at the said concentrations in a vehicle comprising 0.1% polysorbate 80 and 10 mM TRIS base. Dogs were treated by administering 25 μl to the ocular surface, the contralateral eye received vehicle as a control. Intraocular pressure was measured by applanation pneumatonometry. […]
Compound,time (Hr) of IOP max % decrease [h],time (Hr) of IOP max mmHg [h],IOP max mmHg [mmHg],IOP max % decrease [%],ocular hypotensive effect in dogs
"Cc1cc(CC[C@H](O)/C=C/[C@@H]2[C@@H](C/C=C\CCCC(=O)NS(C)(=O)=O)[C@@H](O)C[C@H]2O)sc1Br [Compound 9a, N-((Z)-7-{(1R,2R,3R,5S)-2-[(S)-(E)-5-(5-Bromo-4-methylthiophen-2-yl)-3-hydroxypent-1-enyl]-3,5-dihydroxycyclopentyl}hept-5-enoyl)methanesulfonamide]",72,72,−2.8,−13.6,pronounced ocular hypotensive effect
"Cc1sc(CC[C@H](O)/C=C/[C@@H]2[C@@H](C/C=C\CCCC(=O)NS(C)(=O)=O)[C@@H](O)C[C@H]2O)cc1Cl [Compound 9b, N-((Z)-7-{(1R,2R,3R,5S)-2-[(S)-(E)-5-(4-Chloro-5-methylthiophen-2-yl)-3-hydroxypent-1-enyl]-3,5-dihydroxycyclopentyl}hept-5-enoyl)methanesulfonamide]",96,96,−4.9,−26.5,pronounced ocular hypotensive effect
CS(=O)(=O)NC(=O)CCC/C=C\C[C@@H]1[C@@H](/C=C/[C@@H](O)CCc2ccc(Cl)s2)[C@H](O)C[C@@H]1O [Compound 9c],102,102,−4.2,−23.8,pronounced ocular hypotensive effect
CS(=O)(=O)NC(=O)CCC/C=C\C[C@@H]1[C@@H](/C=C/[C@@H](O)CCc2ccc(Br)s2)[C@H](O)C[C@@H]1O [Compound 9e],100,100,−2.0,−11.7,pronounced ocular hypotensive effect
"CCS(=O)(=O)NC(=O)CCC/C=C\C[C@@H]1[C@@H](/C=C/[C@@H](O)CCc2cc(C)c(Br)s2)[C@H](O)C[C@@H]1O [Compound 10a, Ethanesulfonic acid ((Z)-7-{(1R,2R,3R,5S)-2-[(S)-(E)-5-(5-bromo-4-methylthiophen-2-yl)-3-hydroxypent-1-enyl]-3,5-dihydroxycyclopentyl}hept-5-enoyl)amide]",4,4,−5.1,−24.9,pronounced ocular hypotensive effect
Cc1cc(CC[C@H](O)/C=C/[C@@H]2[C@@H](C/C=C\CCCC(=O)N(COC(=O)C(C)(C)C)S(C)(=O)=O)[C@@H](O)C[C@H]2O)sc1Br [Compound 18a],24,24,−3.9,−22.0,pronounced ocular hypotensive effect
Cc1sc(CC[C@H](O)/C=C/[C@@H]2[C@@H](C/C=C\CCCC(=O)NS(=O)(=O)c3ccccc3)[C@@H](O)C[C@H]2O)cc1Cl [Compound 19b],74,74,−2.6,−13.0,pronounced ocular hypotensive effect
